Test results: PubChem BioAssay (NCI)
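Growth conditions: 96-well plates. Treatment: test compound, 48 hours, 5 concentrations. Analysis: linear interpolation between bracketing concentrations; unreached endpoints set to highest concentration. Here, GI50 denotes the concentration required for 50% inhibition of growth. Definition used: TGI = concentration required for complete inhibition of growth.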

Legend:
Assay in all cases: NCI-60 cell line screen, 48 h
ACHN renal = system: ACHN renal
T-47D breast = system: T-47D breast
DU-145 prostate = system: DU-145 prostate
SF-295 CNS = system: SF-295 CNS
A549 NSCLC = system: A549 NSCLC
NCI-H522 lung = system: NCI-H522 lung
TK-10 renal = system: TK-10 renal
SK-MEL-2 melanoma = system: SK-MEL-2 melanoma
HT29 colon = system: HT29 colon
NCI-H226 lung = system: NCI-H226 lung
SNB-75 CNS = system: SNB-75 CNS
SF-268 CNS = system: SF-268 CNS
SK-OV-3 ovarian = system: SK-OV-3 ovarian
CAKI-1 renal = system: CAKI-1 renal
SR leukemia = system: SR leukemia
MDA-MB-231 breast = system: MDA-MB-231 breast
UO-31 renal = system: UO-31 renal
PC-3 prostate = system: PC-3 prostate
HCC-2998 colon = system: HCC-2998 colon
HCT-15 colon = system: HCT-15 colon
NCI/ADR-RES ovarian = system: NCI/ADR-RES ovarian
SK-MEL-28 melanoma = system: SK-MEL-28 melanoma
HCT-116 colon = system: HCT-116 colon
SF-539 CNS = system: SF-539 CNS
M14 melanoma = system: M14 melanoma
UACC-257 melanoma = system: UACC-257 melanoma
NCI-H23 lung = system: NCI-H23 lung
EKVX NSCLC = system: EKVX NSCLC
OVCAR-8 ovarian = system: OVCAR-8 ovarian
RXF 393 renal = system: RXF 393 renal
HL-60(TB) leukemia = system: HL-60(TB) leukemia
BT-549 breast = system: BT-549 breast
HOP-92 NSCLC = system: HOP-92 NSCLC
IGROV1 ovarian = system: IGROV1 ovarian
786-0 renal = system: 786-0 renal
SW-620 colon = system: SW-620 colon
MDA-MB-435 = system: MDA-MB-435
COLO 205 colon = system: COLO 205 colon
K-562 leukemia = system: K-562 leukemia
HOP-62 NSCLC = system: HOP-62 NSCLC
KM12 colon = system: KM12 colon
OVCAR-5 ovarian = system: OVCAR-5 ovarian
HS 578T breast = system: HS 578T breast
CCRF-CEM leukemia = system: CCRF-CEM leukemia
OVCAR-4 ovarian = system: OVCAR-4 ovarian
A498 renal = system: A498 renal
SNB-19 CNS = system: SNB-19 CNS
MCF7 breast = system: MCF7 breast
SN12C renal = system: SN12C renal
SK-MEL-5 melanoma = system: SK-MEL-5 melanoma
RPMI-8226 leukemia = system: RPMI-8226 leukemia
LOX IMVI melanoma = system: LOX IMVI melanoma
UACC-62 melanoma = system: UACC-62 melanoma
U251 CNS = system: U251 CNS
MALME-3M melanoma = system: MALME-3M melanoma
NCI-H460 lung = system: NCI-H460 lung
MOLT-4 leukemia = system: MOLT-4 leukemia

O=C(NNc1nc2cc(F)ccc2n2c(CN3CCC(O)C3)ccc12)c1cnccn1 (stereo not drawn) was tested, and the GI50 (ACHN renal) was 0.217 µM, the TGI (ACHN renal) was 36.2 µM and the GI50 (T-47D breast) was 1.19 µM. It also gave a TGI (T-47D breast) greater than 100 µM, a GI50 (DU-145 prostate) of 0.981 µM and a TGI (DU-145 prostate) greater than 100 µM. The GI50 (SF-295 CNS) was 0.421 µM, the TGI (SF-295 CNS) was greater than 100 µM and the GI50 (A549 NSCLC) was 0.555 µM. It also gave a TGI (A549 NSCLC) greater than 100 µM, a GI50 (NCI-H522 lung) of 1.13 µM and a TGI (NCI-H522 lung) of 14.7 µM. The GI50 (TK-10 renal) was 0.921 µM, the TGI (TK-10 renal) was greater than 100 µM and the GI50 (SK-MEL-2 melanoma) was 4.09 µM. The TGI (SK-MEL-2 melanoma) was greater than 100 µM, the GI50 (HT29 colon) was 0.512 µM and the TGI (HT29 colon) was greater than 100 µM. The GI50 (NCI-H226 lung) was 0.92 µM, the TGI (NCI-H226 lung) was greater than 63.4 µM and the GI50 (SNB-75 CNS) was 1.96 µM. The TGI (SNB-75 CNS) was greater than 30.4 µM, the GI50 (SF-268 CNS) was 0.744 µM and the TGI (SF-268 CNS) was greater than 100 µM. It also gave a GI50 (SK-OV-3 ovarian) of 0.858 µM, a TGI (SK-OV-3 ovarian) greater than 28.9 µM and a GI50 (CAKI-1 renal) of 0.515 µM. It also gave a TGI (CAKI-1 renal) greater than 100 µM, a GI50 (SR leukemia) of 0.389 µM and a TGI (SR leukemia) greater than 21.8 µM. For the same compound, the GI50 (MDA-MB-231 breast) was 0.941 µM, the TGI (MDA-MB-231 breast) was greater than 100 µM and the GI50 (UO-31 renal) was 0.0972 µM. The TGI (UO-31 renal) was 10.1 µM, the GI50 (PC-3 prostate) was 0.79 µM and the TGI (PC-3 prostate) was greater than 100 µM. It also gave a GI50 (HCC-2998 colon) of 0.738 µM, a TGI (HCC-2998 colon) greater than 100 µM and a GI50 (HCT-15 colon) of 0.148 µM. For the same compound, the TGI (HCT-15 colon) was greater than 100 µM, the GI50 (NCI/ADR-RES ovarian) was 0.33 µM and the TGI (NCI/ADR-RES ovarian) was greater than 35.5 µM. For the same compound, the GI50 (SK-MEL-28 melanoma) was 0.795 µM, the TGI (SK-MEL-28 melanoma) was greater than 100 µM and the GI50 (HCT-116 colon) was 0.0876 µM. It also gave a TGI (HCT-116 colon) greater than 35.1 µM, a GI50 (SF-539 CNS) of 0.763 µM and a TGI (SF-539 CNS) greater than 100 µM. The TGI (M14 melanoma) was 1.08 µM, the GI50 (UACC-257 melanoma) was 1.71 µM and the TGI (UACC-257 melanoma) was 7.53 µM. The GI50 (NCI-H23 lung) was 1.1 µM, the TGI (NCI-H23 lung) was greater than 100 µM and the GI50 (EKVX NSCLC) was 0.449 µM. It also gave a TGI (EKVX NSCLC) greater than 100 µM, a GI50 (OVCAR-8 ovarian) of 0.439 µM and a TGI (OVCAR-8 ovarian) greater than 44.5 µM. For the same compound, the GI50 (RXF 393 renal) was 0.946 µM, the TGI (RXF 393 renal) was greater than 40.5 µM and the GI50 (HL-60(TB) leukemia) was 0.622 µM. It also gave a TGI (HL-60(TB) leukemia) of 6.36 µM, a GI50 (BT-549 breast) of 0.327 µM and a TGI (BT-549 breast) of 9.35 µM. It also gave a GI50 (HOP-92 NSCLC) of 0.59 µM, a TGI (HOP-92 NSCLC) greater than 100 µM and a GI50 (IGROV1 ovarian) of 0.679 µM. For the same compound, the TGI (IGROV1 ovarian) was greater than 100 µM, the GI50 (786-0 renal) was 0.308 µM and the TGI (786-0 renal) was greater than 22.8 µM. The GI50 (SW-620 colon) was 0.973 µM, the TGI (SW-620 colon) was greater than 100 µM and the GI50 (MDA-MB-435) was 1.58 µM. It also gave a TGI (MDA-MB-435) greater than 100 µM, a GI50 (COLO 205 colon) of 0.406 µM and a TGI (COLO 205 colon) greater than 100 µM. For the same compound, the GI50 (K-562 leukemia) was 0.564 µM, the TGI (K-562 leukemia) was greater than 100 µM and the GI50 (HOP-62 NSCLC) was 0.429 µM. The TGI (HOP-62 NSCLC) was greater than 30.6 µM, the GI50 (KM12 colon) was 0.573 µM and the TGI (KM12 colon) was greater than 100 µM. It also gave a GI50 (OVCAR-5 ovarian) of 1.83 µM, a TGI (OVCAR-5 ovarian) greater than 100 µM and a GI50 (HS 578T breast) of 8.66 µM. For the same compound, the TGI (HS 578T breast) was greater than 100 µM, the GI50 (CCRF-CEM leukemia) was 0.347 µM and the TGI (CCRF-CEM leukemia) was greater than 100 µM. For the same compound, the GI50 (OVCAR-4 ovarian) was 0.676 µM, the TGI (OVCAR-4 ovarian) was greater than 100 µM and the GI50 (A498 renal) was 2.04 µM. It also gave a TGI (A498 renal) of 8.91 µM, a GI50 (SNB-19 CNS) of 1 µM and a TGI (SNB-19 CNS) greater than 100 µM. The GI50 (MCF7 breast) was 0.725 µM, the TGI (MCF7 breast) was greater than 100 µM and the GI50 (SN12C renal) was 0.953 µM. For the same compound, the TGI (SN12C renal) was greater than 100 µM, the GI50 (SK-MEL-5 melanoma) was 1 µM and the TGI (SK-MEL-5 melanoma) was 8.29 µM. For the same compound, the GI50 (RPMI-8226 leukemia) was 0.747 µM, the TGI (RPMI-8226 leukemia) was greater than 100 µM and the GI50 (LOX IMVI melanoma) was 0.417 µM. For the same compound, the TGI (LOX IMVI melanoma) was 6.16 µM, the GI50 (UACC-62 melanoma) was 0.408 µM and the TGI (UACC-62 melanoma) was 84.4 µM. The GI50 (U251 CNS) was 0.47 µM, the TGI (U251 CNS) was greater than 100 µM and the GI50 (MALME-3M melanoma) was 1.57 µM. The TGI (MALME-3M melanoma) was greater than 100 µM, the GI50 (NCI-H460 lung) was 0.315 µM and the TGI (NCI-H460 lung) was greater than 31.6 µM. The GI50 (MOLT-4 leukemia) was 0.489 µM and the TGI (MOLT-4 leukemia) was greater than 51.3 µM.
